In ChEMBL document CHEMBL4270495, “Oleanane-, ursane-, and quinone methide friedelane-type triterpenoid derivatives: Recent advances in cancer treatment” (Eur J Med Chem, 2017):

Experiments:
HeLa = assay: Cytotoxicity in human HeLa cells assessed as reduction in cell viability incubated for 72 hrs by MTT assay; assay type: functional, cell-based
HT-29 [1] = assay: Cytotoxicity in human HT-29 cells assessed as reduction in cell viability incubated for 72 hrs by MTT assay; assay type: functional, cell-based; settings: HT-29, 72 h
HepG2 = assay: Cytotoxicity in human HepG2 cells assessed as reduction in cell viability incubated for 72 hrs by MTT assay; assay type: functional, cell-based; settings: HepG2, 72 h
MDCK = assay: Cytotoxicity in canine MDCK cells assessed as reduction in cell viability incubated for 72 hrs by MTT assay; assay type: cell-based; settings: Canis lupus familiaris
EA.hy 926 = assay: Cytotoxicity in human EAhy926 cells assessed as reduction in cell viability incubated for 72 hrs by MTT assay; assay type: cell-based; settings: EA.hy 926, 72 h
H9c2 = assay: Cytotoxicity in rat H9c2 cells assessed as reduction in cell viability incubated for 72 hrs by MTT assay; assay type: cell-based; settings: H9c2, 72 h
MCF7 [2] = assay: Cytotoxicity in human MCF7 cells assessed as reduction in cell viability incubated for 48 hrs by SRB assay; assay type: functional, cell-based; settings: MCF7, 48 h
MDA-MB-231 [3] = assay: Cytotoxicity in human MDA-MB-231 cells assessed as reduction in cell viability incubated for 48 hrs by SRB assay; assay type: functional; settings: MDA-MB-231, 48 h
MDA-MB-231 [4] = assay: Cytotoxicity in human MDA-MB-231 cells assessed as reduction in cell viability incubated for 24 hrs by MTT assay; assay type: functional, cell-based; settings: MDA-MB-231, 24 h
MCF7 [5] = assay: Cytotoxicity in human MCF7 cells assessed as reduction in cell viability incubated for 24 hrs by MTT assay; assay type: functional, cell-based; settings: MCF7, 24 h
TERT-RPE1 = assay: Cytotoxicity in human hTERT-RPE1 cells assessed as reduction in cell viability incubated for 24 hrs by MTT assay; assay type: functional, cell-based; settings: RPE-1, 24 h
HCT-116 = assay: Cytotoxicity in human HCT116 cells assessed as reduction in cell viability incubated for 96 hrs by SRB assay; assay type: functional, cell-based; settings: HCT-116, 96 h
HCT-8 = assay: Cytotoxicity in human HCT8 cells assessed as reduction in cell viability incubated for 96 hrs by SRB assay; assay type: functional, cell-based; settings: HCT-8, 96 h
HT-29 [6] = assay: Cytotoxicity in human HT-29 cells assessed as reduction in cell viability incubated for 96 hrs by SRB assay; assay type: functional, cell-based; settings: HT-29, 96 h
CT26 = assay: Cytotoxicity in mouse CT26 cells assessed as reduction in cell viability incubated for 96 hrs by SRB assay; assay type: functional, cell-based; settings: CT26, 96 h
PC-3 = assay: Cytotoxicity in human PC3 cells assessed as reduction in cell viability incubated for 96 hrs by SRB assay; assay type: functional, cell-based; settings: PC-3, 96 h
DU-145 = assay: Cytotoxicity in human DU145 cells assessed as reduction in cell viability incubated for 96 hrs by SRB assay; assay type: functional, cell-based; settings: DU-145, 96 h
MDA-MB-231 [7] = assay: Cytotoxicity in human MDA-MB-231 cells assessed as reduction in cell viability incubated for 96 hrs by SRB assay; assay type: functional, cell-based; settings: MDA-MB-231, 96 h
4T1 = assay: Cytotoxicity in mouse 4T1 cells assessed as reduction in cell viability incubated for 96 hrs by SRB assay; assay type: functional, cell-based; settings: 4T1, 96 h
Bel-7402 = assay: Cytotoxicity in human Bel7402 cells assessed as reduction in cell viability incubated for 72 hrs by MTT assay; assay type: functional, cell-based; settings: Bel-7402, 72 h
H4 = assay: Cytotoxicity in human H4 cells assessed as reduction in cell viability incubated for 72 hrs by MTT assay; assay type: functional, cell-based; settings: H4, 72 h

SMILES | IC50 (HeLa) [µM] | IC50 (HT-29 [1]) [µM] | IC50 (HepG2) [µM] | IC50 (MDCK) [µM] | IC50 (EA.hy 926) [µM] | IC50 (H9c2) [µM] | IC50 (Bel-7402) [µM] | IC50 (H4) [µM] | further results
COc1cc(/C=C/C(=O)O[C@H]2CC[C@]3(C)[C@H]4C(=O)C=C5[C@H]6C[C@@](C)(C(=O)O)CC[C@]6(C)CC[C@@]5(C)[C@]4(C)CC[C@H]3C2(C)C)cc(OC)c1OC | 30.7 | 25.5 | 21.9 | 27.7 | 30.8 | 47.4 | – | – | –
COc1ccc(OC)c(/C=C/C(=O)O[C@H]2CC[C@]3(C)[C@H]4C(=O)C=C5[C@H]6C[C@@](C)(C(=O)O)CC[C@]6(C)CC[C@@]5(C)[C@]4(C)CC[C@H]3C2(C)C)c1 | 28 | 26.4 | 25.4 | > 50 | 45.1 | > 50 | – | – | –
COc1ccccc1/C=C/C(=O)O[C@H]1CC[C@]2(C)[C@H]3C(=O)C=C4[C@H]5C[C@@](C)(C(=O)O)CC[C@]5(C)CC[C@@]4(C)[C@]3(C)CC[C@H]2C1(C)C | 24.6 | 22.2 | 32 | 22.9 | > 50 | > 50 | – | – | –
C[C@H]1[C@H](C)CC[C@]2(C(=O)OCCCn3cc(COC(=O)[C@]45CC[C@@H](C)[C@H](C)[C@@H]4C4=CC[C@@H]6[C@@]7(C)CC[C@H](O)[C@](C)(CO)[C@@H]7CC[C@]6(C)[C@]4(C)CC5)cn3)CC[C@]3(C)C(=CC[C@@H]4[C@@]5(C)CC[C@H](O)C(C)(C)[C@@H]5CC[C@]43C)[C@H]12 | – | – | – | – | – | – | – | – | GI50 (MCF7 [2]): 12.1 µM; GI50 (MDA-MB-231 [3]): 4.5 µM
COc1cccc(/C=C/C(=O)O[C@H]2CC[C@]3(C)[C@H]4C(=O)C=C5[C@H]6C[C@@](C)(C(=O)O)CC[C@]6(C)CC[C@@]5(C)[C@]4(C)CC[C@H]3C2(C)C)c1 | 17.5 | 14.9 | 12.7 | 22.2 | 31 | > 50 | – | – | –
CC1(C)[C@@H](OC(=O)/C=C/c2ccccc2)CC[C@]2(C)[C@H]3C(=O)C=C4[C@H]5C[C@@](C)(C(=O)O)CC[C@]5(C)CC[C@@]4(C)[C@]3(C)CC[C@@H]12 | 23.7 | 22.3 | 24.4 | 22.6 | 28.9 | 46.1 | – | – | –
COc1cccc(/C=C/C(=O)O[C@H]2CC[C@]3(C)[C@H]4C(=O)C=C5[C@H]6C[C@@](C)(C(=O)O)CC[C@]6(C)CC[C@@]5(C)[C@]4(C)CC[C@H]3C2(C)C)c1OC | 22.5 | 24.4 | 24.4 | 33.7 | 25 | > 50 | – | – | –
COc1ccc(/C=C/C(=O)O[C@H]2CC[C@]3(C)[C@H]4C(=O)C=C5[C@H]6C[C@@](C)(C(=O)O)CC[C@]6(C)CC[C@@]5(C)[C@]4(C)CC[C@H]3C2(C)C)cc1 | 23.4 | 33 | 31.2 | 21.7 | > 50 | 36.1 | – | – | –
C=C(C)[C@@H]1CC[C@]2(C(=O)OCc3cnn(CCCOC(=O)[C@]45CC[C@@H](C)[C@H](C)[C@H]4C4=CC[C@@H]6[C@@]7(C)CC[C@H](O)C(C)(C)[C@@H]7CC[C@@]6(C)[C@]4(C)CC5)c3)CC[C@]3(C)[C@H](CC[C@@H]4[C@@]5(C)CC[C@H](O)C(C)(C)[C@@H]5CC[C@]43C)[C@@H]12 | – | – | – | – | – | – | – | – | GI50 (MCF7 [2]): 14.4 µM; GI50 (MDA-MB-231 [3]): 1.4 µM
Cc1ccc(/C=C/C(=O)O[C@H]2CC[C@]3(C)[C@H]4C(=O)C=C5[C@H]6C[C@@](C)(C(=O)O)CC[C@]6(C)CC[C@@]5(C)[C@]4(C)CC[C@H]3C2(C)C)cc1 | 14.2 | 21.7 | 22.1 | 38 | 27.6 | > 50 | – | – | –
COc1ccc(/C=C/C(=O)O[C@H]2CC[C@]3(C)[C@H]4C(=O)C=C5[C@H]6C[C@@](C)(C(=O)O)CC[C@]6(C)CC[C@@]5(C)[C@]4(C)CC[C@H]3C2(C)C)c(OC)c1OC | 8.54 | 15 | 21.5 | 31.8 | 27.7 | > 50 | – | – | –
CC1(C)[C@@H](O)CC[C@]2(C)[C@H]3C(=O)C=C4[C@H]5C[C@@](C)(C(=O)O)CC[C@]5(C)CC[C@@]4(C)[C@]3(C)CC[C@@H]12 | > 50 | > 50 | > 50 | > 100 | > 100 | > 100 | – | – | IC50 (MDA-MB-231 [4]): 84.7 µM; IC50 (MCF7 [5]): 75.7 µM; IC50 (TERT-RPE1): 63.4 µM; IC50 (HCT-116): 75.1 µM; IC50 (HCT-8): 82.2 µM; IC50 (HT-29 [6]): 77.2 µM; IC50 (CT26): 70.5 µM; IC50 (PC-3): 88 µM; IC50 (DU-145): 136 µM; IC50 (MDA-MB-231 [7]): 101 µM; IC50 (4T1): 96.2 µM
Cc1c(O)c(O)cc2c1C(c1c[nH]c3cc(Cl)ccc13)C=C1C2(C)CC[C@@]2(C)[C@H]3C[C@](C)(C(=O)O)CC[C@]3(C)CC[C@]12C (single isomer, unassigned) | – | – | – | – | – | – | 6.53 | 7.83 | –
COC(=O)[C@]1(C)CC[C@]2(C)CC[C@]3(C)C4=CC(c5c[nH]c6cc(C)ccc56)c5c(cc(OC)c(OC)c5C)C4(C)CC[C@@]3(C)[C@H]2C1 (single isomer, unassigned) | – | – | – | – | – | – | 0.02 | 7.88 | –
CC(=O)Nc1ccc(SC2C=C3C(C)(CC[C@@]4(C)[C@@H]5C[C@](C)(C(=O)O)CC[C@]5(C)CC[C@]34C)c3cc(OC(C)=O)c(OC(C)=O)c(C)c32)cc1 (single isomer, unassigned) | – | – | – | – | – | – | 0.46 | 0.35 | –
COC(=O)[C@]1(C)CC[C@]2(C)CC[C@]3(C)C4=CC(c5c[nH]c6ccc(OC)cc56)c5c(cc(OC)c(OC)c5C)C4(C)CC[C@@]3(C)[C@H]2C1 (single isomer, unassigned) | – | – | – | – | – | – | 0.51 | 4.59 | –
COc1ccc2[nH]cc(C3C=C4C(C)(CC[C@@]5(C)[C@H]6C[C@](C)(C(=O)O)CC[C@]6(C)CC[C@]45C)c4cc(O)c(O)c(C)c43)c2c1 (single isomer, unassigned) | – | – | – | – | – | – | 45.4 | 24.4 | –
Cc1ccc2c(C3C=C4C(C)(CC[C@@]5(C)[C@H]6C[C@](C)(C(=O)O)CC[C@]6(C)CC[C@]45C)c4cc(O)c(O)c(C)c43)c[nH]c2c1 (single isomer, unassigned) | – | – | – | – | – | – | 5.52 | 6.66 | –
CC(=O)Oc1cc2c(c(C)c1OC(C)=O)C(Sc1ccc(C)cc1)C=C1C2(C)CC[C@@]2(C)[C@@H]3C[C@](C)(C(=O)O)CC[C@]3(C)CC[C@]12C (single isomer, unassigned) | – | – | – | – | – | – | 0.45 | 0.37 | –
COC(=O)[C@]1(C)CC[C@]2(C)CC[C@]3(C)C4=CC(c5cn(C)c6cc(Cl)ccc56)c5c(cc(OC)c(OC)c5C)C4(C)CC[C@@]3(C)[C@H]2C1 (single isomer, unassigned) | – | – | – | – | – | – | 0.01 | 2.03 | –
C=C(C)[C@@H]1CC[C@]2(C(=O)O)CC[C@]3(C)[C@H](CC[C@@H]4[C@@]5(C)CC[C@H](O)C(C)(C)[C@@H]5CC[C@]43C)[C@@H]12 [BETULINIC ACID] | – | – | – | – | – | – | – | – | GI50 (MCF7 [2]): 11.3 µM; GI50 (MDA-MB-231 [3]): 22.9 µM
C[C@H]1[C@H](C)CC[C@]2(C(=O)O)CC[C@]3(C)C(=CC[C@@H]4[C@@]5(C)C[C@@H](O)[C@H](O)C(C)(C)[C@@H]5CC[C@]43C)[C@H]12 [COROSOLIC ACID] | – | – | – | – | – | – | – | – | GI50 (MCF7 [2]): 18.5 µM; GI50 (MDA-MB-231 [3]): 15.3 µM
COc1cccc2c1C(=O)c1c(O)c3c(c(O)c1C2=O)C[C@@](O)(C(=O)CO)C[C@@H]3O[C@H]1C[C@H](N)[C@H](O)[C@H](C)O1 [DOXORUBICIN] | – | – | – | – | – | – | – | – | IC50 (MCF7 [5]): 0.49 µM; IC50 (TERT-RPE1): 2.76 µM; GI50 (MCF7 [2]): 5.7 µM; GI50 (MDA-MB-231 [3]): 4.1 µM
